Laboratory results published in patent US8202904B2, “α-cyano-4-fluoro-3-phenoxybenzyl meta-halo pyrethrate, a process for preparing the same and the uses thereof” (East China Normal University, priority 2007, dated 2012).
Converted amounts (≈) assume the structure as drawn.

Columns and labels:
[1] = system: Culex pipiens pallens fourth instar wiggler; assay: Killing effect on wiggler, WHO immersing method, LC50; format: in vivo
Procedure: The following pyrethrates were tested as representatives according to the method recommended by the World Health Organization (WHO) (Zongbing ZHANG, the assay of toxicity of insecticides, the Science Press, 1988), the commonly used testing breed, Culex pipiens pallens fourth instar wiggler is used as a subject for biological assay, test temperature: 26±1° C., humidity: 70±10%; immersing method: a solution of a certain amount the compound to be tested in acetone was mixed evenly with pure water in the gradually decreasing concentration of 500, 250, 100, 50, 25, 12.5, 6.25, 3.125, 1, 0.5, 0.25, 0.1, 0.05, 0.025, 0.01, 0.005, 0.0025, 0.0001 mg/L, and the mortality of wiggler after 24 hours was calculated and LC50 was calculated to preliminarily evaluate the insecticidal activity. The results were shown in Table I. Compound 1-5 are representative examples of the compound of formula (I) of the present invention: the compounds involved in preparation Example 1-5 were prepared;
At the same time, their relative toxicities were compared with those of Cypermethrin, and Deltamethrin.

[2] = Stability test, ultraviolet lamp irradiation, gas chromatography analysis; format: physicochemical; details: 30 min, 3 mM
Procedure: 0.15 mmol of the compound of Preparation Example 2 (cis-α-cyano-3-phenoxy-4-fluoro-benzyl-2,2-dimethyl-3-(2-chlorovinyl)cyclopropane carboxylate) and 0.15 mmol of the corresponding dichloride compound (cis-α-cyano-3-phenoxy-4-fluoro-benzyl-2,2-dimethyl-3-(2,2-dichlorovinyl)cyclopropane carboxylate) were added to two vessels separately, to which 50 ml of cyclohexane were added separately. They were irradiated by a 500 W ultraviolet lamp for 30 min respectively. Then to each of the vessels were added 0.15 mmol of n-hexane as an internal standard for gas chromatography analysis. […] The photodegradation rate of the former is 1.9 times of that of the latter. That is to say, if the same amounts were used, the residue of the former in the environment is lower than that of the latter.

Musca domestica = assay: Striking down effect on Musca domestica, liquid film contact method; format: in vivo; set-up: unit not given here; details: Musca domestica adults, film from 1 ml of 0.1% liquor in acetone in 500 ml conical flask
Procedure: The striking down effect on Musca domestica was tested using Compounds 2 and 3, which are representative examples of the compound of formula (I) of the present invention, Compound 9 as a control example. Musca domestica, an in-house cultured sensitive strain, the adult insects in eclosion for 3-5 days were used, and the male and female insects are half and half. Test temperature: 26±1° C., humidity: 70±10%, test method: liquid film contact method. 1 ml of 0.1% liquor in acetone was evenly coated on a 500 ml conical flask to form a film. After the film was dry, 20˜25 adult insects were put into the flask, and the striking down time and striking down number were observed, and each treatment was done in triplicate.

Blattela germanica = assay: Striking down effect on cockroaches, liquid film contact method; format: in vivo; set-up: unit not given here; details: Blattela germanica male adults, film at 54 mg/m^2, 22±1° C.
Procedure: The striking down effect on Blattela germanica was tested using Compound 2 and 3, which are representative examples of the compound of formula (I) of the present invention, Compound 9 as a control example. Blattela germanica, an in-house cultured sensitive strain, male adult insects were used. Test temperature: 22±1° C., test method: liquid film contact method. A liquor in acetone was evenly coated at the amount of 54 mg/m^2 on the inner wall of a wild mouth bottle to form a film. After the film was dry, 10 adult insects were put into each bottle, and the striking down time and striking down number were observed, and each treatment was done in triplicate.

Mythimna separata = assay: Killing effect on Mythimna separata, dipped corn leaves fed to larvae; format: in vivo; details: 48 h, read-out: The average mortality
Procedure: The killing effect on Mythimna separata was tested using Compounds 2 and 3, which are representative examples of the compound of formula (I) of the present invention, Compound 9, polyfluorobenzyl meta-halo pyrethrate, which has the highest insecticidal activity to Mythimna separata as a control example.
Mythimna separata: test temperature: 26±1° C., humidity: 70±10%; the corn leaves was immersed, and then were taken out after they were dipped in a liquor in dimethyl sulfoxide for 5 seconds. The liquor was dried in the shade and the corn leaves were cut away to feed larvae at the beginning of the third instar. Each treatment was done in triplicate. The number of killed insects was counted after 48 hours to calculate the mortality.

[3] = Acute toxicity on rats by oral administration; details: rat, in vivo
[4] = system: Tetrangychus cinnabarinus; assay: Killing effect on Tetrangychus cinnabarinus, immersion; format: in vivo; details: after 24 hours
Procedure: The killing effect on acarids was tested using Compound 2 and 3, which are representative examples of the compound of formula (I) of the present invention, Compound 9 as a control example. Tetrangychus cinnabarinus, test temperature: 26±1° C. humidity: 70±10%; test method: immersion; adult insects together with horsebean leaves were immersed in a liquor in dimethyl sulfoxide for 5 seconds, after which the leaves were inserted into a small bottle. Each treatment was done in triplicate. The number of the killed insects was checked after 24 hours to calculate the mortality.

Aphis medicaginis kock = assay: Killing effect on aphids, immersion; format: in vivo; details: Aphis medicaginis, 24 h, read-out: The average mortality
Procedure: The killing effect on aphids was tested using Compound 2 and 3, which are representative examples of the compound of formula (I) of the present invention, Compound 9 as a control example. Aphis medicaginis kock; test temperature: 26±1° C., humidity: 70±10%; test method: immersion; adult insects together with bean sprouts were immersed in a liquor in dimethyl sulfoxide for 5 seconds, after which the bean sprouts were heeled in a solid support. Each treatment was done in triplicate. The number of the killed insects was checked after 24 hours to calculate the mortality.

CC1(C)[C@H](C=CCl)[C@@H]1C(=O)OC(C#N)c1ccc(F)c(Oc2ccccc2)c1 (relative stereo) [Compound 2, cis-α-cyano-3-phenoxy-4-fluoro-benzyl-2,2-dimethyl-3-(2-chlorovinyl)cyclopropane carboxylate]
relative toxicity versus cypermethrin ([1]; Culex pipiens pallen larvae): 22.55 times
relative toxicity versus deltamethrin ([1]; Culex pipiens pallen larvae): 2.55 times
relative toxicity versus the compounds in comparative examples 1-6 ([1]; Culex pipiens pallen larvae): 125-1128 times
LC50 ([1]; Culex pipiens, 24 h): 0.47 ng/mL (≈ 1.18 nM)
relative toxicity versus deltamethrin, estimated for the single chiral isomer ([1]; extrapolated 4*2.55 from the racemate of four chiral isomers): 10 times
Relative toxicity ([1]; from wiggler LC50, Cypermethrin = 100): 2255
degraded by light [2]: 30%
photodegradation rate relative to the corresponding dichloride compound [2]: 1.9 times
KT50 (Musca domestica): 3.49
KT50 (Blattela germanica): 5.12
mortality at 0.25 ppm (Mythimna separata): 0%
mortality at 0.5 ppm (Mythimna separata): 33.3%
mortality at 1 ppm (Mythimna separata): 66.7%
mortality at 5 ppm (Mythimna separata): 100%
mortality at 50 ppm (Mythimna separata): 100%
mortality at 500 ppm (Mythimna separata): 100%
LD50 ([3]; female): 158 mg/kg
LD50 ([3]; male): 116 mg/kg
The average mortality ([4]; 1 mg/L): 0%
The average mortality ([4]; 5 mg/L): 11.9%
The average mortality ([4]; 50 mg/L): 91.1%
The average mortality ([4]; 500 mg/L): 100%
mortality at 0.25 ppm (Aphis medicaginis kock): 0%
mortality at 0.5 ppm (Aphis medicaginis kock): 28.8%
mortality at 1 ppm (Aphis medicaginis kock): 84.3%
mortality at 5 ppm (Aphis medicaginis kock): 89.5%
mortality at 50 ppm (Aphis medicaginis kock): 100%
mortality at 500 ppm (Aphis medicaginis kock): 100%
